Assay [1] relates to wild-type ydaO riboswitch. Kind of assay: gel-shift. The assay is classed as binding, Bacillus subtilis. The note with it: for binding energy weaker than the corresponding deoxy variant: 2’-fluoro versus 2’-deoxy analog (c-dA-AMP or c-di-dAMP); for ΔΔGbind: ΔGbind(analog) − ΔGbind(c-di-AMP); for binding to ydaO riboswitch (in words): competition gel-shift, highest analog concentration tested (≥200 µM).

Assay [2] deals with T1, phosphodiesterase protein GdpP (GdpP84–659) (Bacillus subtilis, UniProt P37484). Kind of assay: HPLC phosphodiesterase assay, degradation rates of c-di-AMP and analogs. The assay is classed as biochemical. The note with it: for Fold Change: hydrolysis rate relative to c-di-AMP (fold slower); for degradation by GdpP (in words): HPLC assay, incubation up to 24 h.
For assay [3], the target named is ydaO riboswitch ΔSite1 mutant. Kind of assay: gel-shift binding to ydaO binding-site mutant ΔSite1. To be noted: for Kd: read-out: Ligand Kd; for Kd / fold loss in affinity compared to native ligand: ΔSite1 construct; for fold loss in affinity compared to native ligand: versus c-di-AMP.
The target of assay [4] is ydaO riboswitch ΔSite2 mutant. Kind of assay: gel-shift binding to ydaO binding-site mutant ΔSite2. The note with it: for Kd: read-out: Ligand Kd; for Kd / fold loss in affinity compared to native ligand: ΔSite2 construct; for fold loss in affinity compared to native ligand: versus c-di-AMP.
The target in assay [5] is phosphodiesterase protein GdpP (Bacillus subtilis, UniProt P37484). Kind of assay: competition phosphodiesterase assay. To be noted: for Fold Change: Ki relative to Km of c-di-AMP (130 µM); for effect on c-di-AMP degradation by GdpP (in words): excess unlabeled competitor analog.
Assay [6] deals with T1, phosphodiesterase protein GdpP (GdpP84–659). Kind of assay: steady-state kinetics. Type of assay: biochemical.
Assay [7] has as its system wild-type ydaO riboswitch. The note with it: cited from earlier work.
The test system of assay [8] is ydaO riboswitch ΔSite1 mutant. The note with it: cited from earlier work.
For assay [9], the target named is T1, phosphodiesterase protein GdpP (GdpP84–659). To be noted: cited from earlier work.
Assay [10] has as its system ydaO riboswitch Site 1U construct. Kind of assay: gel-shift binding to ydaO G-U mutant Site 1U.
Assay [11] concerns ydaO riboswitch Site 2U construct. Kind of assay: gel-shift binding to ydaO G-U mutant Site 2U.
Assay [12] deals with ydaO riboswitch, both binding sites mutated. Kind of assay: gel-shift binding to ydaO construct with both binding sites mutated. To be noted: both binding sites mutated in a single construct.
[13] abbreviates: loss in affinity for wild-type ydaO relative to c-di-AMP.

Like-named read-outs stand apart in the source and are kept apart here.

T1 sequence (P37484 84-659): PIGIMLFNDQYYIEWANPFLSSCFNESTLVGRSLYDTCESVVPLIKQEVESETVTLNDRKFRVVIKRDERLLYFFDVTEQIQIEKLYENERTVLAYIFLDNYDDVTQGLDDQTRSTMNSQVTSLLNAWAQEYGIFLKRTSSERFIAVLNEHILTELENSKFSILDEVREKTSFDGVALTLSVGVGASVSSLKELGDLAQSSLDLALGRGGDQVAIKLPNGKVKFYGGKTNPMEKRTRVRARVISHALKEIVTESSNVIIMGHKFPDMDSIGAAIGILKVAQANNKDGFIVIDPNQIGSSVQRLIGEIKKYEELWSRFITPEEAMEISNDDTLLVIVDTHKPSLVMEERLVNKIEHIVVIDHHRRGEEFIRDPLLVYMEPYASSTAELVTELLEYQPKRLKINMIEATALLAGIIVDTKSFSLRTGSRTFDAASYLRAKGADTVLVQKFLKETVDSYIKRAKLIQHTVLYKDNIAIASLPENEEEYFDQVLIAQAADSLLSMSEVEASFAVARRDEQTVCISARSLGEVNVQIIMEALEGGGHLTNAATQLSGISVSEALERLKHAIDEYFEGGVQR
Sequence of phosphodiesterase protein GdpP (P37484 84-659): as above

Take `Nc1ncnc2c1ncn2[C@@H]1O[C@@H]2COP(=O)(O)O[C@H]3[C@@H](F)[C@H](n4cnc5c(N)ncnc54)O[C@@H]3COP(=O)(O)O[C@H]2[C@H]1O` [c-2’F-A-AMP]: the “Fold Loss” value in [1] is given as 47. In assay [1] (wild-type ydaO), the “binding energy weaker than the corresponding deoxy variant” value is listed as around 0.5 kcal/mol and the ΔΔGbind is listed as 2.3 kcal/mol. For the same compound, the “Fold Change” value in assay [2] was found to be 24.

As to `COC1C2OP(=O)(O)OCC3OC(n4cnc5c(N)ncnc54)C(O)C3OP(=O)(O)OCC2OC1n1cnc2c(N)ncnc21` (centres unmarked) [c-2’OMe-A-AMP], the “Fold Loss” value in assay [1] was found to be 620. Moreover, the “Fold Change” value in [2] came out at 30.

Take `Nc1ncnc2c1ncn2[C@@H]1O[C@@H]2CO[P@@](=O)(S)O[C@H]3[C@@H](O)[C@H](n4cnc5c(N)ncnc54)O[C@@H]3CO[P@@](=O)(S)O[C@H]2[C@H]1O` [c-(RpRp)-di-Aps]: the “Fold Loss” value in assay [1] (setting [13]) is 1.8. Moreover, the ΔΔGbind in assay [1] (wild-type ydaO) was found to be 0.4 kcal/mol. Moreover, in [2], the “degradation by GdpP (in words)” value is “No detectable degradation” and the “Fold Change” value was at least 4100. Moreover, in [3], the equilibrium dissociation constant (Kd) (usually the equilibrium constant for the complex coming apart) is 0.0113 ± 0.0008 µM and the “fold loss in affinity compared to native ligand” value (from here on “fold loss … to native ligand”) is on record as 2 fold. In addition, in assay [4], the dissociation constant (Kd) came out at 0.0062 ± 0.0005 µM and the “fold loss … to native ligand” value was found to be 2 fold. Moreover, in assay [5], affinity was put at a Ki of 260 ± 2.7 µM and the “Fold Change” value is recorded as 2.0. The “Fold Change” value in assay [5] (listed as RpRp) is reported as at most 2.

For `Nc1ncnc2c1ncn2[C@@H]1O[C@@H]2CO[P@@](=O)(S)O[C@H]3[C@@H](O)[C@H](n4cnc5c(N)ncnc54)O[C@@H]3CO[P@](=O)(S)O[C@H]2[C@H]1O` [c-(RpSp)-di-Aps], the “Fold Loss” value in [1] (setting [13]) came to 2.9. The ΔΔGbind in assay [1] (wild-type ydaO) came out at 0.6 kcal/mol. In [2], the “degradation by GdpP (in words)” value is listed as “No detectable degradation” and the “Fold Change” value is at least 4100. Besides, in assay [3], the Kd was 0.0094 ± 0.0011 µM and the “fold loss … to native ligand” value is recorded as 2 fold. Besides, in [4], the Kd is 0.0054 ± 0.0004 µM and the “fold loss … to native ligand” value amounted to 2 fold. In addition, in [5], affinity was put at a Ki of 210 ± 17 µM and the “Fold Change” value worked out at 1.6. Besides, the “Fold Change” value in assay [5] (listed as RpSp) is given as at most 2.

In the case of `Nc1ncnc2c1ncn2[C@@H]1O[C@@H]2COP(=O)(O)O[C@H]3[C@@H](O)[C@H](n4cnc5c(=O)[nH]cnc54)O[C@@H]3COP(=O)(O)O[C@H]2[C@H]1O` [c-AMP-IMP], the ΔΔGbind in assay [1] (wild-type ydaO) was 4.3 kcal/mol. Besides, the “Fold Change” value in [2] was determined as 3.3.

In the case of `Nc1ncnc2c1ncn2[C@@H]1O[C@@H]2COP(=O)(O)O[C@H]3C[C@H](n4cnc5c(N)ncnc54)O[C@@H]3COP(=O)(O)O[C@H]2[C@H]1F` [c-dA-2’F-A], in [1] (setting [13]), the “Fold Loss” value was 530. For the same compound, in assay [1] (wild-type ydaO), the “improvement in binding energy by replacing a 2’-fluoro substituent with a 2’-deoxy group” value is around 1.4 kcal/mol and the ΔΔGbind is reported as 3.7 kcal/mol. For the same compound, in assay [2], the “Fold Change” value is listed as at least 4100. Also, in assay [5], the affinity corresponds to a Ki of 9.4 ± 0.8 µM, the “Fold Change” value worked out at 0.07 and the “effect on c-di-AMP degradation by GdpP (in words)” value (shortened to “effect on c-di-AMP degradation”) is given as “reduced degradation velocity”.

In the case of `Nc1ncnc2c1ncn2C1CC2OP(=O)(O)OCC3OC(n4cnc5c(N)ncnc54)C(O)C3OP(=O)(O)OCC2O1` (centres unmarked) [c-dA-AMP], in assay [1], the “Fold Loss” value was determined as 20. In assay [1] (wild-type ydaO), the ΔΔGbind is recorded as 1.8 kcal/mol. In [2], the “Fold Change” value worked out at 1.2. The “effect on c-di-AMP degradation” value in assay [5] is reported as “measurable deficiency in linearization”.

Take `Nc1ncnc2c1ncn2[C@@H]1O[C@@H]2COP(=O)(O)O[C@H]3[C@@H](F)[C@H](n4cnc5c(N)ncnc54)O[C@@H]3COP(=O)(O)O[C@H]2[C@H]1F` [c-di-2’F-AMP]: in [1] (wild-type ydaO), the “binding energy weaker than the corresponding deoxy variant” value was “more than 1.7 kcal/mol” and the ΔΔGbind was found to be 5.1 kcal/mol. The “Fold Loss” value in assay [1] (setting [13]) turned out to be 5100. In addition, in [2], the “Fold Change” value was at least 4100. For the same compound, in assay [5], affinity was put at a Ki of 26 ± 3.6 µM, the “Fold Change” value is on record as 0.2 and the “effect on c-di-AMP degradation” value is given as “reduced degradation velocity”.

As for `CO[C@@H]1[C@@H]2OP(=O)(O)OC[C@H]3O[C@@H](n4cnc5c(N)ncnc54)[C@H](OC)[C@@H]3OP(=O)(O)OC[C@H]2O[C@H]1n1cnc2c(N)ncnc21` [c-di-2’OMe-AMP], the “binding to ydaO riboswitch (in words)” value in [1] was “no detectable affinity”. Also, the “Fold Loss” value in assay [1] (setting [13]) is reported as > 2.9 × 10^6. Further, in assay [1] (wild-type ydaO), the ΔΔGbind was above 8.8 kcal/mol. Further, the “Fold Change” value in assay [2] is at least 4100. Moreover, in assay [5], the inhibitory constant (Ki) – broadly, the dissociation constant of the complex between target and ligand, obtained from inhibition or displacement – turned out to be 15 ± 2.5 µM; the “Fold Change” value worked out at 0.12; the “effect on c-di-AMP degradation” value is “reduced degradation velocity”.

With `Nc1ncnc2c1ncn2[C@@H]1O[C@@H]2COP(=O)(O)O[C@H]3[C@@H](O)[C@H](n4cnc5c(N)ncnc54)O[C@@H]3COP(=O)(O)O[C@H]2[C@H]1O` [c-di-AMP, (3’-5’)-cyclic diadenosine monophosphate], the Hill coefficient (commonly the slope factor of the fitted curve) was 1.6 in assay [1] (c-di-AMP binding curve, wild-type ydaO, cooperative binding model); 1 in [10] (Site 1U construct); 1 in assay [11] (Site 2U construct); 1 in assay [3] (ΔSite1 mutant); 1 in assay [4] (ΔSite2 mutant). Besides, in assay [2] (100 µM substrate, 1 µM GdpP), the “initial rate of hydrolysis” value was 4.1 min⁻¹. Also, in [2] (HPLC traces, experimental conditions used), the “degradation of c-di-AMP after 60 min (in words)” value is “completely degraded”. Moreover, the Km – broadly, the concentration of substrate that gives half-maximal velocity – in assay [6] (c-di-AMP as substrate of GdpP) is 130 µM. The “rate of c-di-AMP hydrolysis (kcat)” value in [6] (steady-state, substrate 3 to 800 µM, 200 nM GdpP) is 0.26 ± 0.02 s⁻¹. In addition, the “Vmax, maximum reaction velocity” value in [6] (used in Ki equation) is 15.6 min⁻¹. Besides, the “selectivity of ydaO binding over c-di-GMP and c-AMP-GMP” value in assay [7] was “more than 100,000 fold”. For the same compound, the “binding to Site 2 when Site 1 was mutated (in words)” value in assay [8] is on record as “No measurable binding”. Also, the “rate of c-di-AMP hydrolysis, previously published value” in assay [9] is 0.55 ± 0.02 s⁻¹. The “fold lower affinity than the ΔSite mutants” value in [10] (Site 1U (G-U wobble) construct) and in assay [11] (Site 2U (G-U wobble) construct) was “less than 10 fold” throughout. Also, the results for the Kd in [3] and in assay [4] were 0.0055 ± 0.0003 µM and 0.0033 ± 0.0005 µM, respectively. For the same compound, in assay [4] (ΔSite2 mutant versus wild-type), the “fold loss in affinity compared with wild-type ydaO” value is listed as 6 fold. In addition, the “affinity for the riboswitch (in words)” value in [12] was “disrupted c-di-AMP affinity”.

Consider `Nc1nc2c(ncn2[C@@H]2O[C@@H]3COP(=O)(O)O[C@H]4[C@@H](O)[C@H](n5cnc6c(=O)[nH]c(N)nc65)O[C@@H]4COP(=O)(O)O[C@H]3[C@H]2O)c(=O)[nH]1` [c-di-GMP, (3’-5’)-cyclic diguanosine monophosphate, reference compound], for which the “binding to ydaO riboswitch (in words)” value in [1] is given as “no detectable binding”. The ΔΔGbind in assay [1] (wild-type ydaO) is on record as above 10 kcal/mol.

As for `O=c1[nH]cnc2c1ncn2[C@@H]1O[C@@H]2COP(=O)(O)O[C@H]3[C@@H](O)[C@H](n4cnc5c(=O)[nH]cnc54)O[C@@H]3COP(=O)(O)O[C@H]2[C@H]1O` [c-di-IMP], the “Fold Loss” value in [1] (setting [13]) came out at 3600. Moreover, the ΔΔGbind in assay [1] (wild-type ydaO) was found to be 4.9 kcal/mol. Moreover, the “Fold Change” value in assay [2] is given as at least 4100.

Consider `Nc1ncnc2c1ncn2[C@H]1C[C@@H]2OP(=O)(O)OC[C@H]3O[C@@H](n4cnc5c(N)ncnc54)C[C@@H]3OP(=O)(O)OC[C@H]2O1` [c-di-dAMP], for which, in assay [1] (setting [13]), the “Fold Loss” value came to 290. Besides, the ΔΔGbind in assay [1] (wild-type ydaO) is recorded as 3.4 kcal/mol. The “Fold Change” value in [2] is recorded as at least 4100. Further, the “loss in ligand affinity” value in assay [7] (previously reported) is on record as “up to 100 fold”. In addition, in assay [5], the affinity corresponds to a Ki of 200 ± 18 µM, the “Fold Change” value came to 1.5 and the “effect on c-di-AMP degradation” value is on record as “reduced degradation velocity”.

The record behind these values is paper PMC4755858 (Biochemistry, 2016).
